Experiments:
RPMI-8226 = assay: Antitumor activity against human RPMI8226 cells assessed as cell growth inhibition at 10 uM incubated for 48 hrs by sulforhodamine B assay; type: functional; settings: read-out: GI
MCF7 = assay: Antitumor activity against human MCF7 cells assessed as cell growth inhibition at 10 uM incubated for 48 hrs by sulforhodamine B assay; type: functional; settings: read-out: GI
SK-MEL-28 = assay: Antitumor activity against human SK-MEL-28 cells assessed as cell growth inhibition at 10 uM incubated for 48 hrs by sulforhodamine B assay; type: functional; settings: read-out: GI
MDA-MB-231 = assay: Antitumor activity against human MDA-MB-231/ATCC cells assessed as cell growth inhibition at 10 uM incubated for 48 hrs by sulforhodamine B assay; type: functional; settings: read-out: GI
NCI-H226 = assay: Antitumor activity against human NCI-H226 assessed as cell growth inhibition at 10 uM incubated for 48 hrs by sulforhodamine B assay; type: functional; settings: read-out: GI
KM12 = assay: Antitumor activity against human KM12 cells assessed as cell growth inhibition at 10 uM incubated for 48 hrs by sulforhodamine B assay; type: functional; settings: read-out: GI
PC-3 = assay: Antitumor activity against human PC-3 cells assessed as cell growth inhibition at 10 uM incubated for 48 hrs by sulforhodamine B assay; type: functional; settings: read-out: GI
HCT-15 = assay: Antitumor activity against human HCT15 cells assessed as cell growth inhibition at 10 uM incubated for 48 hrs by sulforhodamine B assay; type: functional; settings: read-out: GI
HOP-92 = assay: Antitumor activity against human HOP92 cells assessed as cell growth inhibition at 10 uM incubated for 48 hrs by sulforhodamine B assay; type: functional; settings: read-out: GI
IGROV-1 = assay: Antitumor activity against human IGROV1 cells assessed as cell growth inhibition at 10 uM incubated for 48 hrs by sulforhodamine B assay; type: functional; settings: read-out: GI
HT-29 = assay: Antitumor activity against human HT-29 cells assessed as cell growth inhibition at 10 uM incubated for 48 hrs by sulforhodamine B assay; type: functional; settings: read-out: GI
MOLT-4 = assay: Antitumor activity against human MOLT4 cells assessed as cell growth inhibition at 10 uM incubated for 48 hrs by sulforhodamine B assay; type: functional; settings: read-out: GI
ACHN = assay: Antitumor activity against human ACHN cells assessed as cell growth inhibition at 10 uM incubated for 48 hrs by sulforhodamine B assay; type: functional; settings: read-out: GI
OVCAR-4 = assay: Antitumor activity against human OVCAR-4 cells assessed as cell growth inhibition at 10 uM incubated for 48 hrs by sulforhodamine B assay; type: functional; settings: read-out: GI
NCI-H23 = assay: Antitumor activity against human NCI-H23 cells assessed as cell growth inhibition at 10 uM incubated for 48 hrs by sulforhodamine B assay; type: functional; settings: read-out: GI
UACC-62 = assay: Antitumor activity against human UACC-62 cells assessed as cell growth inhibition at 10 uM incubated for 48 hrs by sulforhodamine B assay; type: functional; settings: read-out: GI
OVCAR-8 = assay: Antitumor activity against human OVCAR-8 cells assessed as cell growth inhibition at 10 uM incubated for 48 hrs by sulforhodamine B assay; type: functional; settings: read-out: GI
HL-60(TB) = assay: Antitumor activity against human HL-60(TB) cells assessed as cell growth inhibition at 10 uM incubated for 48 hrs by sulforhodamine B assay; type: functional; settings: read-out: GI
U-251 = assay: Antitumor activity against human U251 cells assessed as cell growth inhibition at 10 uM incubated for 48 hrs by sulforhodamine B assay; type: functional; settings: read-out: GI
NCI-H460 = assay: Antitumor activity against human NCI-H460 assessed as cell growth inhibition at 10 uM incubated for 48 hrs by sulforhodamine B assay; type: functional; settings: read-out: GI
NCI-H522 = assay: Antitumor activity against human NCI-H522 cells assessed as cell growth inhibition at 10 uM incubated for 48 hrs by sulforhodamine B assay; type: functional; settings: read-out: GI
Malme-3M = assay: Antitumor activity against human MALME-3M cells assessed as cell growth inhibition at 10 uM incubated for 48 hrs by sulforhodamine B assay; type: functional; settings: read-out: GI
A498 = assay: Antitumor activity against human A498 cells assessed as cell growth inhibition at 10 uM incubated for 48 hrs by sulforhodamine B assay; type: functional; settings: read-out: GI
UO-31 = assay: Antitumor activity against human UO-31 cells assessed as cell growth inhibition at 10 uM incubated for 48 hrs by sulforhodamine B assay; type: functional; settings: read-out: GI
EKVX = assay: Antitumor activity against human EKVX cells assessed as cell growth inhibition at 10 uM incubated for 48 hrs by sulforhodamine B assay; type: functional; settings: read-out: GI
OVCAR-3 = assay: Antitumor activity against human OVCAR-3 cells assessed as cell growth inhibition at 10 uM incubated for 48 hrs by sulforhodamine B assay; type: functional; settings: read-out: GI
Hs-578T = assay: Antitumor activity against human HS 578T cells assessed as cell growth inhibition at 10 uM incubated for 48 hrs by sulforhodamine B assay; type: functional; settings: read-out: GI
SNB-75 = assay: Antitumor activity against human SNB-75 cells assessed as cell growth inhibition at 10 uM incubated for 48 hrs by sulforhodamine B assay; type: functional; settings: read-out: GI
HCT-116 = assay: Antitumor activity against human HCT116 cells assessed as cell growth inhibition at 10 uM incubated for 48 hrs by sulforhodamine B assay; type: functional; settings: read-out: GI
MDA-MB-468 = assay: Antitumor activity against human MDA-MB-468 cells assessed as cell growth inhibition at 10 uM incubated for 48 hrs by sulforhodamine B assay; type: functional; settings: read-out: GI
NCI/ADR-RES = assay: Antitumor activity against human NCI/ADR-RES cells assessed as cell growth inhibition at 10 uM incubated for 48 hrs by sulforhodamine B assay; type: functional; settings: read-out: GI
MDA-MB-435 = assay: Antitumor activity against human MDA-MB-435 cells assessed as cell growth inhibition at 10 uM incubated for 48 hrs by sulforhodamine B assay; type: functional; settings: read-out: GI
LOX IMVI = assay: Antitumor activity against human LOX IMVI cells assessed as cell growth inhibition at 10 uM incubated for 48 hrs by sulforhodamine B assay; type: functional; settings: read-out: GI
786-0 = assay: Antitumor activity against human 786-0 cells assessed as cell growth inhibition at 10 uM incubated for 48 hrs by sulforhodamine B assay; type: functional; settings: read-out: GI
SW-620 = assay: Antitumor activity against human SW620 cells assessed as cell growth inhibition at 10 uM incubated for 48 hrs by sulforhodamine B assay; settings: SW-620, 48 h, read-out: GI
RXF 393 = assay: Antitumor activity against human RXF 393 cells assessed as cell growth inhibition at 10 uM incubated for 48 hrs by sulforhodamine B assay; type: functional; settings: read-out: GI
SF-295 = assay: Antitumor activity against human SF295 cells assessed as cell growth inhibition at 10 uM incubated for 48 hrs by sulforhodamine B assay; type: functional; settings: read-out: GI
SK-OV-3 = assay: Antitumor activity against human SK-OV-3 cells assessed as cell growth inhibition at 10 uM incubated for 48 hrs by sulforhodamine B assay; type: functional; settings: read-out: GI
COLO 205 = assay: Antitumor activity against human COLO205 cells assessed as cell growth inhibition at 10 uM incubated for 48 hrs by sulforhodamine B assay; type: functional; settings: read-out: GI
CCRF-CEM = assay: Antitumor activity against human CCRF-CEM cells assessed as cell growth inhibition at 10 uM incubated for 48 hrs by sulforhodamine B assay; type: functional; settings: read-out: GI
SF-268 = assay: Antitumor activity against human SF268 cells assessed as cell growth inhibition at 10 uM incubated for 48 hrs by sulforhodamine B assay; type: functional; settings: read-out: GI
HCC 2998 = assay: Antitumor activity against human HCC2998 cells assessed as cell growth inhibition at 10 uM incubated for 48 hrs by sulforhodamine B assay; type: functional; settings: read-out: GI
K562 = assay: Antitumor activity against human K562 cells assessed as cell growth inhibition at 10 uM incubated for 48 hrs by sulforhodamine B assay; type: functional; settings: read-out: GI
M14 = assay: Antitumor activity against human M14 cells assessed as cell growth inhibition at 10 uM incubated for 48 hrs by sulforhodamine B assay; type: functional; settings: read-out: GI
SNB-19 = assay: Antitumor activity against human SNB-19 cells assessed as cell growth inhibition at 10 uM incubated for 48 hrs by sulforhodamine B assay; type: functional; settings: read-out: GI
SN12C = assay: Antitumor activity against human SN12C cells assessed as cell growth inhibition at 10 uM incubated for 48 hrs by sulforhodamine B assay; type: functional; settings: read-out: GI
BT-549 = assay: Antitumor activity against human BT-549 cells assessed as cell growth inhibition at 10 uM incubated for 48 hrs by sulforhodamine B assay; type: functional; settings: read-out: GI
SR = assay: Antitumor activity against human SR cells assessed as cell growth inhibition at 10 uM incubated for 48 hrs by sulforhodamine B assay; type: functional; settings: read-out: GI

What does the source list for `CCN(CC)c1ccc(-c2nc3c4ccccc4c4ccccc4c3o2)c(O)c1`?
inhibition of growth at 10 µM (RPMI-8226): 44.6%; inhibition of growth at 10 µM (MCF7): 43.2%; inhibition of growth at 10 µM (SK-MEL-28): < 10%; inhibition of growth at 10 µM (MDA-MB-231): 35.2%; inhibition of growth at 10 µM (NCI-H226): < 10%; inhibition of growth at 10 µM (KM12): 55.6%; inhibition of growth at 10 µM (PC-3): 20.3%; inhibition of growth at 10 µM (HCT-15): 65.1%; inhibition of growth at 10 µM (HOP-92): 11%; inhibition of growth at 10 µM (IGROV-1): 19.2%; inhibition of growth at 10 µM (HT-29): 64.3%; inhibition of growth at 10 µM (MOLT-4): 39%; inhibition of growth at 10 µM (ACHN): 23.1%; inhibition of growth at 10 µM (OVCAR-4): < 10%; inhibition of growth at 10 µM (NCI-H23): 13.5%; inhibition of growth at 10 µM (UACC-62): 11.2%; inhibition of growth at 10 µM (OVCAR-8): 15%; inhibition of growth at 10 µM (HL-60(TB)): 31.4%; inhibition of growth at 10 µM (U-251): 15.6%; inhibition of growth at 10 µM (NCI-H460): 15%; inhibition of growth at 10 µM (NCI-H522): 19.8%; inhibition of growth at 10 µM (Malme-3M): < 10%; inhibition of growth at 10 µM (A498): < 10%; inhibition of growth at 10 µM (UO-31): 35.2%; inhibition of growth at 10 µM (EKVX): 20.2%; inhibition of growth at 10 µM (OVCAR-3): 10.3%; inhibition of growth at 10 µM (Hs-578T): 10%; inhibition of growth at 10 µM (SNB-75): < 10%; inhibition of growth at 10 µM (HCT-116): 16.6%; inhibition of growth at 10 µM (MDA-MB-468): 15.8%; inhibition of growth at 10 µM (NCI/ADR-RES): 11%; inhibition of growth at 10 µM (MDA-MB-435): < 10%; inhibition of growth at 10 µM (LOX IMVI): 75.3%; inhibition of growth at 10 µM (786-0): 12.2%; inhibition of growth at 10 µM (SW-620): 31.4%; inhibition of growth at 10 µM (RXF 393): 16.6%; inhibition of growth at 10 µM (SF-295): < 10%; inhibition of growth at 10 µM (SK-OV-3): < 10%; inhibition of growth at 10 µM (COLO 205): 12.8%; inhibition of growth at 10 µM (CCRF-CEM): 41.4%; inhibition of growth at 10 µM (SF-268): 12%; inhibition of growth at 10 µM (HCC 2998): 18.7%; inhibition of growth at 10 µM (K562): 79.7%; inhibition of growth at 10 µM (M14): 12.4%; inhibition of growth at 10 µM (SNB-19): < 10%; inhibition of growth at 10 µM (SN12C): < 10%; inhibition of growth at 10 µM (BT-549): < 10%; inhibition of growth at 10 µM (SR): 72.4%

— ChEMBL document CHEMBL4665624, “Synthesis of 5-(4-(1H-phenanthro[9,10-d]imidazol-2-yl)benzylidene)thiazolidine-2,4-dione as promising DNA and serum albumin-binding agents and evaluation of antitumor activity” (Eur J Med Chem, 2019)
